In patent publication US7662825B2, “N-pyrazinyl-phenylsulphonamides and their use in the treatment of chemokine mediated diseases” (AstraZeneca AB, priority 2002, dated 2010):

System: not given
Assay: not given
Conditions: not given

Compound | melting point
COC(=O)c1nc(OC)c(NS(=O)(=O)c2cccc(Cl)c2Cl)nc1C [Example 119, 5-(2,3-Dichlorobenzenesulphonylamino)-6-methoxy-3-methylpyrazine-2-carboxylic aicd, methyl ester] | 149 to 150 °C
COc1nccnc1NS(=O)(=O)c1ccc(F)c(Cl)c1Cl [Example 207, 2,3-Dichloro-4-fluoro-N-(3-methoxy-2-pyrazinyl)benzenesulphonamide] | 192 to 194 °C
CC(Oc1nc(Cl)cnc1NS(=O)(=O)c1cccc(Cl)c1Cl)C1CC1 (stereo not shown) [Example 208] | 161 to 162 °C
O=S(=O)(Nc1ncc(Cl)nc1OCc1ccc(CNC2CC2)o1)c1cccc(Cl)c1Cl [Example 210, 2,3-Dichloro-N-[5-chloro-3-(5-cyclopropylaminomethyl-2-furanylmethoxy)-2-pyrazinyl]-benzenesulphonamide] | 175 to 176 °C
Nc1nc(COc2nc(Cl)cnc2NS(=O)(=O)c2cccc(Cl)c2Cl)co1 [Example 212, N-[3-[(2-amino-4-oxazolyl)methoxy]-5-chloro-2-pyrazinyl]-2,3-dichlorobenzenesulphonamide] | 137 °C

Target: T1, human recombinant CCR4 receptor (Homo sapiens, UniProt P51679)
T1 construct: host or cells: CHO-K1
T1 sequence (P51679 1-360): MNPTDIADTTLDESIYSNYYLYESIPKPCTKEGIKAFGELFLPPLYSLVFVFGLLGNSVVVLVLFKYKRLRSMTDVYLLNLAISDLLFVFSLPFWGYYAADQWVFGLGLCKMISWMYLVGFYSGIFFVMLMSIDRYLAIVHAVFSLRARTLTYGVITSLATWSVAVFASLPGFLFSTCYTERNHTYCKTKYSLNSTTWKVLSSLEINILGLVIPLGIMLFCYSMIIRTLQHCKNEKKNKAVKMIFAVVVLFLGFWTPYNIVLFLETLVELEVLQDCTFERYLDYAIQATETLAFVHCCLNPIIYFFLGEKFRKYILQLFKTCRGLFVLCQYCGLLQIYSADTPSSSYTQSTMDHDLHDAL
Assay: FMAT whole cell binding assay (FB-MDC binding to cells)
Conditions: CHO-K1 cells stably expressing human recombinant CCR4; inhibition of binding of fluorescent FB-MDC, two hours at room temperature
Experimental: FMAT Whole Cell Binding Assay
CHO—K1 cells stably expressing the human recombinant CCR4 receptor (Euroscreen; Brussels, Belgium) were cultured in NUT.MIX.F—12(HAM) medium with glutamax-1, containing 10% (v/v) foetal bovine serum and 400 μg ml^−1 geneticin.
Cells were harvested at approximately 70% confluence by treatment with a cell dissociation buffer, and seeded at 5×10^3 cells/100 μl culture medium into wells of a black Costar clear-bottomed 96-well microtitre plates. Plates were incubated overnight at 37° C. in 5% CO2 and used the following day.
Before use, the cell plates were washed twice with 100 μl Hanks balanced salt solution (HBSS). To each well was then added 65 μl of HBSS, 10 μL of 10% DMSO in HBSS±test compound and then 25 μL of 2.8 nM FB-MDC (Applied Biosystems). This fluorescent probe was prepared from a 10 μM stock in 0.08% (v/v) TFA/16% (v/v) acetonitrile, diluted into HBSS.
After two hours incubation in the dark at room temperature, the plates were analysed in an FMAT8100 reader (Applied Biosystems) to measure fluorescence that was associated with binding of FB-MDC to the cells.

Compound | IC50
COC(=O)c1nc(OC)c(NS(=O)(=O)c2cccc(Cl)c2Cl)nc1C [Example 119, 5-(2,3-Dichlorobenzenesulphonylamino)-6-methoxy-3-methylpyrazine-2-carboxylic aicd, methyl ester] | 63.1 nM
COc1nc(CN2CCOCC2)cnc1NS(=O)(=O)c1cccc(Cl)c1Cl [Example 186, 2,3-Dichloro-N-[3-methoxy-5-(4-morpholinylmethyl)-2-pyrazinyl]benzenesulphonamide] | 631 nM
